Where a SMILES comes first, the peptide text is derived from it. Bridges are numbered along the chain shown (N, C = ends). [ ]: non-standard residue; d: D form. The star is where a group is joined. Threoninol(2S,3R) = C[C@@H](O)[C@H](CO)N*
Legend:
[1] = tested on: Hepatotoxicity;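 as to HepSE cholecystitis: Cholecystitis-related hepatic side effect score drawn from the DILIps (drug-induced liver injury prediction) training data set; call rule not given here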;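 as to HepSE cirrhosis: cirrhosis hepatic side effect score taken from the DILIps (drug-induced liver injury prediction) training set; call rule not given here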;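 as to HepSE hepatic necrosis: score of hepatic side effects for hepatic necrosis, drawn from the training data of DILIps, a prediction system for drug-induced liver injury; call rule not given here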;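 as to HepSE jaundice: Jaundice-related hepatic side-effect score drawn from the training data of the DILIps (drug-induced liver injury prediction system); call rule not given here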;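 as to HepSE liver fatty: hepatic side effect score for fatty liver, taken from the DILIps training set for predicting drug-induced liver injury; call rule not given here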;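 as to HepSE liver function tests abnormal: hepatic side effect score taken from the DILIps (drug-induced liver injury prediction system) training data, here covering abnormal liver function test findings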
[2] = tested on: Hepatotoxicity; remark: listed apart in the source;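 as to HepSE cholecystitis: Cholecystitis-related hepatic side effect score drawn from the DILIps (drug-induced liver injury prediction) training data set; call rule not given here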;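 as to HepSE cirrhosis: cirrhosis hepatic side effect score taken from the DILIps (drug-induced liver injury prediction) training set; call rule not given here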;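 as to HepSE hepatic necrosis: score of hepatic side effects for hepatic necrosis, drawn from the training data of DILIps, a prediction system for drug-induced liver injury; call rule not given here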;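 as to HepSE jaundice: Jaundice-related hepatic side-effect score drawn from the training data of the DILIps (drug-induced liver injury prediction system); call rule not given here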;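 as to HepSE liver fatty: hepatic side effect score for fatty liver, taken from the DILIps training set for predicting drug-induced liver injury; call rule not given here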;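 as to HepSE liver function tests abnormal: hepatic side effect score taken from the DILIps (drug-induced liver injury prediction system) training data, here covering abnormal liver function test findings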
[3] = tested on: Hepatotoxicity; remark: listed apart in the source;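 as to HepSE cholecystitis: Cholecystitis-related hepatic side effect score drawn from the DILIps (drug-induced liver injury prediction) training data set; call rule not given here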;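 as to HepSE cirrhosis: cirrhosis hepatic side effect score taken from the DILIps (drug-induced liver injury prediction) training set; call rule not given here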;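 as to HepSE hepatic necrosis: score of hepatic side effects for hepatic necrosis, drawn from the training data of DILIps, a prediction system for drug-induced liver injury; call rule not given here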;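 as to HepSE jaundice: Jaundice-related hepatic side-effect score drawn from the training data of the DILIps (drug-induced liver injury prediction system); call rule not given here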;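 as to HepSE liver fatty: hepatic side effect score for fatty liver, taken from the DILIps training set for predicting drug-induced liver injury; call rule not given here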;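 as to HepSE liver function tests abnormal: hepatic side effect score taken from the DILIps (drug-induced liver injury prediction system) training data, here covering abnormal liver function test findings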
[4] = tested on: Hepatotoxicity; remark: listed apart in the source;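 as to HepSE cholecystitis: Cholecystitis-related hepatic side effect score drawn from the DILIps (drug-induced liver injury prediction) training data set; call rule not given here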;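 as to HepSE cirrhosis: cirrhosis hepatic side effect score taken from the DILIps (drug-induced liver injury prediction) training set; call rule not given here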;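 as to HepSE hepatic necrosis: score of hepatic side effects for hepatic necrosis, drawn from the training data of DILIps, a prediction system for drug-induced liver injury; call rule not given here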;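 as to HepSE jaundice: Jaundice-related hepatic side-effect score drawn from the training data of the DILIps (drug-induced liver injury prediction system); call rule not given here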;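 as to HepSE liver fatty: hepatic side effect score for fatty liver, taken from the DILIps training set for predicting drug-induced liver injury; call rule not given here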
[5] = tested on: Hepatotoxicity; remark: listed apart in the source
[6] = tested on: Hepatotoxicity; remark: listed apart in the source
[7] = tested on: Hepatotoxicity; remark: listed apart in the source
[8] = tested on: Hepatotoxicity; remark: listed apart in the source
[9] = tested on: Hepatotoxicity; remark: listed apart in the source
[10] = tested on: Hepatotoxicity; remark: listed apart in the source
[11] = tested on: Hepatotoxicity; remark: listed apart in the source
[12] = tested on: Hepatotoxicity; remark: listed apart in the source
[13] = tested on: Hepatotoxicity; remark: listed apart in the source
[14] = tested on: Hepatotoxicity; remark: listed apart in the source

SMILES | HepSE_jaundice [1] | HepSE_hepatic necrosis [2] | HepSE_liver fatty [3] | HepSE_cirrhosis [4] | HepSE_bilirubinemia [5] | HepSE_cholecystitis [6] | HepSE_liver function tests abnormal [7] | HepSE_cholelithiasis [8] | HepSE_hepatitis [9] | HepSE_liver disease [10] | HepSE_hepatomegaly [11] | HepSE_Combined Scores [12] | HepSE_hepatic failure [13] | HepSE_elevated liver function tests [14] | further results
CCCCN1C[C@H](O)[C@@H](O)[C@H](O)[C@H]1CO | 0 | 0 | 0 | 0 | 0 | 0 | 0 | 0 | 0 | 0 | 0 | 0 | 0 | 0 | 
CC(C)(C)NC(=O)[C@@H]1C[C@@H]2CCCC[C@@H]2CN1C[C@@H](O)[C@H](Cc1ccccc1)NC(=O)[C@H](CC(N)=O)NC(=O)c1ccc2ccccc2n1 |  |  |  |  |  |  |  |  |  |  |  |  |  |  | HepSE_jaundice ([1]; Liver): 1; HepSE_hepatic necrosis ([2]; Liver): 0; HepSE_liver fatty ([3]; Liver): 0; HepSE_cirrhosis ([4]; Liver): 0; HepSE_bilirubinemia ([5]; Liver): 1; HepSE_cholecystitis ([6]; Liver): 0; HepSE_liver function tests abnormal ([7]; Liver): 0; HepSE_cholelithiasis ([8]; Liver): 1; HepSE_hepatitis ([9]; Liver): 1; HepSE_liver disease ([10]; Liver): 1; HepSE_hepatomegaly ([11]; Liver): 1; HepSE_Combined Scores ([12]; Liver): 7; HepSE_hepatic failure ([13]; Liver): 0; HepSE_elevated liver function tests ([14]; Liver): 1
CC(=O)[C@@]1(O)CC[C@H]2[C@@H]3C[C@H](C)C4=CC(=O)CC[C@]4(C)[C@H]3CC[C@@]21C |  |  |  |  |  |  |  |  |  |  |  |  |  |  | HepSE_jaundice ([1]; Liver): 1; HepSE_hepatic necrosis ([2]; Liver): 0; HepSE_liver fatty ([3]; Liver): 0; HepSE_cirrhosis ([4]; Liver): 0; HepSE_bilirubinemia ([5]; Liver): 0; HepSE_cholecystitis ([6]; Liver): 0; HepSE_liver function tests abnormal ([7]; Liver): 0; HepSE_cholelithiasis ([8]; Liver): 1; HepSE_hepatitis ([9]; Liver): 1; HepSE_liver disease ([10]; Liver): 0; HepSE_hepatomegaly ([11]; Liver): 1; HepSE_Combined Scores ([12]; Liver): 5; HepSE_hepatic failure ([13]; Liver): 1; HepSE_elevated liver function tests ([14]; Liver): 0
COCCCOc1cc(C[C@@H](C[C@H](N)[C@@H](O)C[C@H](C(=O)NCC(C)(C)C(N)=O)C(C)C)C(C)C)ccc1OC | 0 | 0 | 0 | 0 | 0 | 0 | 0 | 0 | 0 | 0 | 0 | 0 | 0 | 0 | 
CO/N=C(\C(=O)N[C@@H]1C(=O)N2C(C(=O)[O-])=C(C[N+]3(C)CCCC3)CS[C@H]12)c1csc(N)n1 | 0 | 0 | 0 | 0 | 0 | 0 | 0 | 0 | 0 | 0 | 0 | 1 | 1 | 0 | 
O=S(=O)(OC[C@H]1O[C@@H](O[C@]2(COS(=O)(=O)[O][Al]([OH])[OH])O[C@H](OS(=O)(=O)[O][Al]([OH])[OH])[C@@H](OS(=O)(=O)[O][Al]([OH])[OH])[C@@H]2OS(=O)(=O)[O][Al]([OH])[OH])[C@H](OS(=O)(=O)[O][Al]([OH])[OH])[C@@H](OS(=O)(=O)[O][Al]([OH])[OH])[C@@H]1OS(=O)(=O)[O][Al]([OH])[OH])[O][Al]([OH])[OH].[OH][Al]([OH])[OH].[OH][Al]([OH])[OH].[OH][Al]([OH])[OH].[OH][Al]([OH])[OH].[OH][Al]([OH])[OH].[OH][Al]([OH])[OH].[OH][Al]([OH])[OH].[OH][Al]([OH])[OH] | 0 | 0 | 0 | 0 | 0 | 0 | 0 | 0 | 0 | 0 | 0 | 0 | 0 | 0 | 
CC(C)(C)NC(=O)[C@@H]1CN(Cc2cccnc2)CCN1C[C@@H](O)C[C@@H](Cc1ccccc1)C(=O)N[C@H]1c2ccccc2C[C@H]1O.O | 1 | 0 | 0 | 0 | 1 | 0 | 0 | 0 | 1 | 0 | 0 | 4 | 1 | 0 | 
C[C@@H](O)[C@H](CO)NC(=O)[C@@H]1CSSC[C@H](NC(=O)[C@H](N)Cc2ccccc2)C(=O)N[C@@H](Cc2ccccc2)C(=O)N[C@H](Cc2c[nH]c3ccccc23)C(=O)N[C@@H](CCCCN)C(=O)N[C@@H]([C@@H](C)O)C(=O)N1 (H-[dF]CF[dW]KTC-{Threoninol(2S,3R)}; disulfide 2-7) | 1 | 0 | 1 | 0 | 1 | 1 | 0 | 1 | 1 | 0 | 0 | 6 | 0 | 0 | 
